The values below are quoted from earlier work in patent US11426447B2, “Neuregulin for the treatment of tumors of the nervous system” (LEIBNIZ-INSTITUT FUR …, priority 2016, dated 2022).

The test system of this data set is schwannoma. The conditions noted are these: cited from earlier work.

Regarding bevacizumab, where the note is “NF2 patients (Plotkin et al., 2009)”, the “efficacy for schwannoma growth control and hearing improvement” value was “limited efficacy”. Also, the side effects result (human, in vivo) is listed as “severe side effects”.
